Two compounds from patent publication US7897150B1, “Canine lymphoma cell line and uses thereof” (The Ohio State University, priority 2007, dated 2011) can be followed below.

For this assay, the system named is OSW cell line. The assay is described as follows: In vitro chemosensitivity (WST-1 cytotoxicity and proliferation assay). It counts as cell-based. The settings on record: Canis lupus familiaris; OSW canine T-cell lymphoma cell line, 72 h treatment, WST-1 assay; read-out: inhibitory concentration 50% (IC50). The method, then: 1-2×10^4 cells were seeded in 96-well plates in quadruplicates to a final volume of 200 μL/well. Cells were treated with doxorubicin hydrochloride (Ben Venue Laboratories-Novation, Bedford, Ohio, USA) or vincristine sulfate (Mayne Pharma Pty Ltd., Mulgrave VIC, Australia) at varying concentrations of drug or vehicle control for 72 h. Cell proliferation and viability was determined using the WST-1 assay, which quantifies the reduction of the tetrazolium salt WST-1 by mitochondria in viable cells. Cell number was determined from absorbance values of known numbers of cells. At various time intervals, 20 μl of WST-1 reagent (Roche, Indianapolis, Ind., USA) was added to each well and incubated for 2 to 4 h at 37° C. The absorbance of the reaction product, after background subtraction, was measured at 450 nm on a Spectra Max M2 plate reader (Molecular Devices, Sunnyvale, Calif., USA). Each experiment was repeated at least three times.
The in vitro chemosensitivity of the OSW cell line to doxorubicin and vincristine was determined.
Background: Formazan colour is commonly taken as a measure of viable cells.

Molecules are shown by their SMILES. Counter-ions that a name gives are not always drawn.

With `CC[C@]1(O)C[C@H]2CN(CCc3c([nH]c4ccccc34)[C@@](C(=O)OC)(c3cc4c(cc3OC)N(C=O)[C@H]3[C@@](O)(C(=O)OC)[C@H](OC(C)=O)[C@]5(CC)C=CCN6CC[C@]43[C@@H]65)C2)C1` [vincristine, vincristine sulfate], the IC50 was 400 nM.
Next, `COc1cccc2c1C(=O)c1c(O)c3c(c(O)c1C2=O)C[C@@](O)(C(=O)CO)C[C@@H]3O[C@H]1C[C@H](N)[C@H](O)[C@H](C)O1` [Doxorubicin, doxorubicin hydrochloride]: 500 nM.
